Data published in patent publication US20240376124A1, “Macrocyclic Kinase Inhibitors” (Incyte Corporation, priority 2023, published 2024).
pIC50: −log10 of the molar value.

What was measured:
[1] = biological target: T1, pseudo-kinase domain (JH2, amino-acids 536-812) of human V617F mutant JAK2 (Homo sapiens, UniProt O60674, F794H/V617F/W659A/W777A); experiment: JAK2 LanthaScreen JH2-V617F Binding Assay; settings: 50 nM tracer, read-out: JH2BINDING—V617F IC50
T1 construct: pseudo-kinase domain (JH2, amino-acids 536-812 with 3 surface mutations W659A, W777A, F794H); His (C); purchased BPS Bioscience 79498; host or cells: baculovirus expression system
T1 sequence (O60674 536-812 V617F/W659A/W777A/F794H): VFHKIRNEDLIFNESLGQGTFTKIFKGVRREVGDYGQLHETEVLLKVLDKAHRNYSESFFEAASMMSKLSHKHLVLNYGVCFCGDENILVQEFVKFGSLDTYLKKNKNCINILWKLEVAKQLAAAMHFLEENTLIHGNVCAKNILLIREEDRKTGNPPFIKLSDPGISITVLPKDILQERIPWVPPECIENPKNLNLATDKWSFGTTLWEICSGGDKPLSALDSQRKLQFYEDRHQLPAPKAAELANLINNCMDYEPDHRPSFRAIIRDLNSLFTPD
Procedure: Example C. JAK2 LanthaScreen JH2-V617F Binding Assay
(§1) JAK2 JH2-V617F binding assay utilizes pseudo-kinase domain (JH2, amino-acids 536-812 with 3 surface mutations W659A, W777A, F794H) of human V617F mutant JAK2 expressed as C-terminal His-Avi-tagged, biotinylated protein in a baculovirus expression system (BPS Bioscience, Catalog #79498). The assay was conducted in black 384-well polystyrene plates in a final reaction volume of 20 μL. JAK2 JH2-V617F (0.26 nM) was incubated with compounds (100 nL serially diluted in DMSO) in the presence of 50 nM Fluorescent JAK2-JH2 Tracer (MedChem Express Catalog #HY-102055) and 0.25 nM Streptavidin-Tb cryptate (Cisbio Part #610SATLB) in assay buffer (50 mM Tris, pH=7.5, 10 mM MgCl2, 0.01% Brij-35, 0.1% BSA, 1 mM EGTA, 5% Glycerol and 5 mM DTT). Non-specific binding was accessed in the presence of 2 mM ATP. After incubation for 1 hour at 25° C., LanthaScreen signals were read on a PHERAstar FS plate reader (BMG LABTECH). Data was analyzed with IDBS XLfit and GraphPad Prism 5.0 software using a four parameter dose response curve to determine IC50 for each compound.

[2] = biological target: T2, pseudo-kinase domain (JH2, amino-acids 536-812) of human Wild Type JAK2 (Homo sapiens, UniProt O60674, F794H/W659A/W777A); experiment: JAK2 LanthaScreen JH2-WT Binding Assay; settings: 50 nM tracer, read-out: JH2BIND_WT IC50
T2 construct: pseudo-kinase domain (JH2, amino-acids 536-812 with 3 surface mutations W659A, W777A, F794H); His (C); purchased BPS Bioscience 79463; host or cells: baculovirus expression system
T2 sequence (O60674 536-812 W659A/W777A/F794H): as the sequence (O60674 536-812 V617F/W659A/W777A/F794H) above, with F82V counted along it
Procedure: Example B. JAK2 LanthaScreen JH2-WT Binding Assay
as §1, with “JH2-WT” for “JH2-V617F”, “Wild Type” for “V617F mutant”, “#79463).” for “#79498).”, “JH2-WT (0.145” for “JH2-V617F (0.26”

[3] = biological target: T3, catalytic domain (JH1, amino acids 826-1132) of human JAK2 (Homo sapiens, UniProt O60674); experiment: JAK2 LanthaScreen JH1 binding assay; settings: JAK2 JH1, 50 nM tracer; read-out: JH1BIND IC50
T3 construct: catalytic domain (JH1, amino acids 826-1132) of human JAK2; FLAG (N); purchased Carna Biosciences 08-445-20N; host or cells: baculovirus expression system
T3 sequence (O60674 826-1132): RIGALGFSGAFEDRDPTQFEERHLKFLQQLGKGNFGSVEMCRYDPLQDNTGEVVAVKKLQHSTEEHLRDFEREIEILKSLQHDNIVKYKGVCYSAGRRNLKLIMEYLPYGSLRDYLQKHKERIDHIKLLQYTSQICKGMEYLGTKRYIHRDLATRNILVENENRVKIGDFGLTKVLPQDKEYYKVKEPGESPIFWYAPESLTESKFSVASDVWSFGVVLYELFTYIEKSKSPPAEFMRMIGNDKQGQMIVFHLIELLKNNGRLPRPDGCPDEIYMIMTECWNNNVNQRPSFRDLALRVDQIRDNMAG
Procedure: Example A. JAK2 LanthaScreen […] Binding Assay
JAK2 JH1 binding assay utilizes catalytic domain (JH1, amino acids 826-1132) of human JAK2 expressed as N-terminal FLAG-tagged, biotinylated protein in a baculovirus expression system (Carna Biosciences, Product #08-445-20N). The assay was conducted in black 384-well polystyrene plates in a final reaction volume of 20 μL. JAK2 JH1 (1.5 nM) was incubated with compounds (100 nL serially diluted in DMSO) in the presence of 50 nM fluorescent JAK2-JH1 tracer and 0.5 nM Streptavidin-Tb cryptate (Cisbio Part #610SATLB) in assay buffer (50 mM Tris, pH=7.5, 10 mM MgCl2, 0.01% Brij-35, 0.1% BSA, 1 mM EGTA, […] and 5 mM DTT). Non-specific binding was accessed in the presence of 2 mM ATP. After incubation for 2 hours at 25° C., LanthaScreen signals were read on a PHERAstar FS plate reader (BMG LABTECH).
Data was analyzed with IDBS XLfit and GraphPad Prism 5.0 software using a four parameter dose response curve to determine IC50 for each compound.

[4] = biological target: T4, catalytic domain (JH1, amino acids 808-1132) of human JAK2 (Homo sapiens, UniProt O60674); experiment: JAK2 HTRF Enzyme Activity Assay; assay type: biochemical; settings: ATP 30 μM; read-out: ENZ 30UMATP IC50
T4 construct: catalytic domain (JH1, amino acids 808-1132) of human JAK2; His (N); purchased BPS Bioscience 40450; host or cells: baculovirus expression system
T4 sequence (O60674 808-1132): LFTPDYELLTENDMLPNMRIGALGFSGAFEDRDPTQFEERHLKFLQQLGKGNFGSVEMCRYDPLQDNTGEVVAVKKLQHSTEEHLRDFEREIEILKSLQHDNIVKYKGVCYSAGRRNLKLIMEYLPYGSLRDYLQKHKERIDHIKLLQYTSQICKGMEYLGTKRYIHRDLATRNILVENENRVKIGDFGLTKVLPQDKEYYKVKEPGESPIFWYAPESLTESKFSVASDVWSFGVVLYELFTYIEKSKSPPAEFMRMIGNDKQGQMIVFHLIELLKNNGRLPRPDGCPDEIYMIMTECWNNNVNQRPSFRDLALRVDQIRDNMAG
Procedure: Example D. JAK2 HTRF Enzyme Activity Assay
JAK2 enzyme activity assays utilize catalytic domain (JH1, amino acids 808-1132) of human JAK2 expressed as N-terminal His-tagged protein in a baculovirus expression system (BPS Bioscience, Catalog #40450). The assays was conducted in black 384-well polystyrene plates in a final reaction volume of 20 μL. JAK2 (0.015 nM) was incubated with compounds (100 nL serially diluted in DMSO) in the presence of ATP (30 μM or 1 mM) and 500 nM Biotin-labeled EQEDEPEGDYFEWLE (SEQ ID NO.: 1) peptide (BioSource International, custom synthesis) in assay buffer (50 mM Tris, pH=7.5, 10 mM MgCl2, 0.01% Brij-35, 0.1% BSA, 1 mM EGTA, 5% Glycerol and 5 mM DTT) for 60 minutes at 25° C. The reactions were stopped by the addition of 10 μL of detection buffer (50 mM Tris, pH 7.8, 0.5 mg/mL BSA, 150 mM NaCl), supplemented with EDTA, LANCE Eu-W1024 anti-phosphotyrosine (PY20), (PerkinElmer, Catalog #AD0067) and Streptavidin SureLight APC (PerkinElmer Catalog #CR130-100), for a final concentration of 15 mM, 1.5 nM and 75 nM, respectively. HTRF signals were read after 30 minutes incubation at room temperature on a PHERAstar FS plate reader (BMG LABTECH). Data was analyzed with IDBS XLfit and GraphPad Prism 5.0 software using a four parameter dose response curve to determine IC50 for each compound. The compounds of the disclosure were tested in one or more of the assays described in Examples A-D, and the resulting data are shown in Table A.

Row | Molecule | pIC50 [1] | pIC50 [2] | pIC50 [3] | pIC50 [4]
1 | [2H]C([2H])([2H])n1c(=O)n2c3c4c(c(-c5cnn(CCOC)c5)[nH]c4ncc31)-c1ccc(cc1)OCC/C=C/C[C@]1(NC(=O)[C@H]3C[C@H]3F)CC[C@@H]2CC1 [Example 8, (1R,2R)-2-Fluoro-N-((3^1S,3^4s,E)-2^7-(1-(2-methoxyethyl)-1H-pyrazol-4-yl)-2^3-(methyl-d3)-2^2-oxo-2^1,2^2,2^3,2^6-tetrahydro-9-oxa-2(8,1)-imidazo[4,5-d]pyrrolo[2,3-b]pyridina-1(1,4)-benzena-3(1,4)-cyclohexanacyclononaphan-5-en-3^4-yl)cyclopropane-1-carboxamide] | ≥ 8.00 | ≥ 8.00 | 6.00 to 6.30 | 6.00 to 6.30
2 | [2H]C([2H])([2H])n1c(=O)n2c3c4c(c(-c5cnn(C)c5)[nH]c4ncc31)-c1ccc(cc1)OCC/C=C/C[C@]1(NC(=O)[C@H]3C[C@H]3F)CC[C@@H]2CC1 [Example 10, (1R,2R)-2-fluoro-N-((3^1S,3^4s,E)-2^3-(methyl-d3)-2^7-(1-methyl-1H-pyrazol-4-yl)-2^2-oxo-2^1,2^2,2^3,2^6-tetrahydro-9-oxa-2(8,1)-imidazo[4,5-d]pyrrolo[2,3-b]pyridina-1(1,4)-benzena-3(1,4)-cyclohexanacyclononaphan-5-en-3^4-yl)cyclopropane-1-carboxamide] | ≥ 8.00 | ≥ 8.00 | 6.00 to 6.30 | 6.00 to 6.30
3 | N-((3^1r,3^4s)-2^7-(3-Methoxy-1-methyl-1H-pyrazol-4-yl)-2^3-(methyl-d3)-2^2-oxo-2^1,2^2,2^3,2^6-tetrahydro-8-oxa-2(8,1)-imidazo[4,5-d]pyrrolo[2,3-b]pyridina-1(1,4)-benzena-3(1,4)-cyclohexanacyclooctaphane-3^4-yl)cyclopropanecarboxamide [Example 5] | ≥ 8.00 | ≥ 8.00 | < 6.00 | < 6.00
4 | [2H]C([2H])([2H])n1c(=O)n2c3c4c(c(-c5cnn(CC(F)F)c5)[nH]c4ncc31)-c1ccc(cc1)OCC/C=C/C[C@]1(NC(=O)[C@H]3C[C@H]3F)CC[C@@H]2CC1 [Example 11, (1R,2R)-N-((3^1S,3^4s,E)-2^7-(1-(2,2-difluoroethyl)-1H-pyrazol-4-yl)-2^3-(methyl-d3)-2^2-oxo-2^1,2^2,2^3,2^6-tetrahydro-9-oxa-2(8,1)-imidazo[4,5-d]pyrrolo[2,3-b]pyridina-1(1,4)-benzena-3(1,4)-cyclohexanacyclononaphan-5-en-3^4-yl)-2-fluorocyclopropane-1-carboxamide] | ≥ 8.00 | ≥ 8.00 | 6.00 to 6.30 | < 6.00
5 | [2H]C([2H])([2H])n1c(=O)n2c3c4c(c(-c5cn(C)nc5OC)[nH]c4ncc31)-c1ccc(cc1)OC/C=C/C[C@]1(NC(=O)C3CC3)CC[C@@H]2CC1 [Example 1, N-((3^1s,3^4s,E)-2^7-(3-Methoxy-1-methyl-1H-pyrazol-4-yl)-2^3-(methyl-d3)-2^2-oxo-2^1,2^2,2^3,2^6-tetrahydro-8-oxa-2(8,1)-imidazo[4,5-d]pyrrolo[2,3-b]pyridina-1(1,4)-benzena-3(1,4)-cyclohexanacyclooctaphan-5-en-3^4-yl)cyclopropanecarboxamide] | ≥ 8.00 | ≥ 8.00 | < 6.00 | < 6.00
6 | [2H]C([2H])([2H])n1c(=O)n2c3c4c(c(-c5cn(C)nc5OC)[nH]c4ncc31)-c1ccc(cc1)CNCC[C@]1(NC(=O)C3CC3)CC[C@@H]2CC1 [Example 7, N-((3^1s,3^4s)-2^7-(3-Methoxy-1-methyl-1H-pyrazol-4-yl)-2^3-(methyl-d)-2^2-oxo-2^1,2^2,2^3,2^6-tetrahydro-6-aza-2(8,1)-imidazo[4,5-d]pyrrolo[2,3-b]pyridina-1(1,4)-benzena-3(1,4)-cyclohexanacycloheptaphane-3^4-yl)cyclopropanecarboxamide] | 7.00 to 8.00 | ≥ 8.00 | < 6.00 | < 6.00
